Marks after values point to notes of the source that are not given here.
Tests used:
Oral exposure in mice = type: in vivo, mouse; conditions: for Plasma drug concentration (mean ± SD): mice, 10 mg/kg oral gavage
AR protein [1] = target: T1, AR protein (Homo sapiens, UniProt P10275); assay: Multiplexed quantitative proteomics analysis in VCaP cells; type: cell-based; conditions: 10 μM, 24 h
T1 sequence (P10275 1-920): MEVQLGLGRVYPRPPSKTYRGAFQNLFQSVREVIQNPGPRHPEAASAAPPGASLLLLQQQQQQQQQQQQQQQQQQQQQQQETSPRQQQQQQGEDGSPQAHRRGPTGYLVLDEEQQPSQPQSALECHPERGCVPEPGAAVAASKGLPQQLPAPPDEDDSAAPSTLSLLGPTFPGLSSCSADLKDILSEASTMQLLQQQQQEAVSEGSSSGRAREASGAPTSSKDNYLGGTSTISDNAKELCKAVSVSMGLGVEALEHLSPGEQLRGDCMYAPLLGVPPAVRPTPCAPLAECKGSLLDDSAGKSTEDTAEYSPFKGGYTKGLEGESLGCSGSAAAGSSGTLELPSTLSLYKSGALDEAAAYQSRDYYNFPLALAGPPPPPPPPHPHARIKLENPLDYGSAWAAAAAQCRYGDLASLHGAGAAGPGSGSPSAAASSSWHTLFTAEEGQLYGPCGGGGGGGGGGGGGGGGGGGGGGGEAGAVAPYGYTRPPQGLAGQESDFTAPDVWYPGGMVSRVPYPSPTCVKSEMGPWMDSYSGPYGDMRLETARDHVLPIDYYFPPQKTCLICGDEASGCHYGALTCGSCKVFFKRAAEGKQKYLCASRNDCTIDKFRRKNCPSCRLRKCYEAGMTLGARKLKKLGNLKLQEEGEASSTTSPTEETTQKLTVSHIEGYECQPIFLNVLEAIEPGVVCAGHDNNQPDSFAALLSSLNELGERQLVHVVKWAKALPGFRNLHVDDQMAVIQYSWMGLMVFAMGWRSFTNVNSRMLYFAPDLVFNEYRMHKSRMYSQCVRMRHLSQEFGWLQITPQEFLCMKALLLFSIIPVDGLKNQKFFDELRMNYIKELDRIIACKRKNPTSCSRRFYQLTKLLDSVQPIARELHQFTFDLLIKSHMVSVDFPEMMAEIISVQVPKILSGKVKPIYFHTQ

AR-LBD protein = target: T2, AR-LBD protein (Rattus norvegicus, UniProt P15207); assay: AR fluorescence-polarization; type: binding
T2 sequence (P15207 651-882 limits assumed): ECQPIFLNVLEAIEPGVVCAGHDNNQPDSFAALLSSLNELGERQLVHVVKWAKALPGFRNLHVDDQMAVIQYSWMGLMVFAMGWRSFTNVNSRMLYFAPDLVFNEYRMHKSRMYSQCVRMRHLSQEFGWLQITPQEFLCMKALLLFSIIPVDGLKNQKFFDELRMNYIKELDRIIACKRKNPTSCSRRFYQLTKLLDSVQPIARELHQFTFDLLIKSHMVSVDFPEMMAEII

AR protein [2] = target: T1, AR protein; assay: AR protein degradation in VCaP cells, Western blotting; type: cell-based; conditions: VCaP and LNCaP cell lines
KLK3 (PSA) gene = assay: Suppression of KLK3; type: cell-based, human
PK study in mouse = type: in vivo; conditions: male, ICR, plasma, po, 5 mg/kg
PK study in rat = type: in vivo; conditions: male, Sprague-Dawley, plasma, po, 10 mg/kg
PK study in dog = type: in vivo; conditions: male, beagle, plasma, po, 1 mg/kg
VCaP xenograft tumor = assay: Antitumor activity in VCaP xenograft tumor model in SCID mice; type: in vivo, mouse; conditions: all doses tested (3.75-25 mg/kg), entire experiment
[3] = male, SCID, mouse, plasma, po, 10 mg/kg

Q: With “2-chloro-4-(8-(4-(4-(4-(2-(2,6-dioxopiperidin-3-yl)-1,3-dioxoisoindolin-5-yl)piperazin-1-yl)piperidin-1-yl)benzoyl)-2,8-diazaspiro[4.5]decan-2-yl)benzonitrile [Compound 20]” as the compound, how does the “Plasma drug concentration (mean ± SD)” value (Oral exposure in mice; 1 h) read?
A: 82^b ng/ml

Q: And the “Plasma drug concentration (mean ± SD)” value (Oral exposure in mice; 3 h)?
A: 57^b ng/ml

Q: And the “Plasma drug concentration (mean ± SD)” value (Oral exposure in mice; 6 h)?
A: 91^b ng/ml

Q: What about the “Plasma drug concentration (mean ± SD)” value (Oral exposure in mice; 24 h) of the same compound?
A: 3^b ng/ml

Q: With `C[C@H]1CC2(CCN(c3ccc(C(=O)N4CCN(C)CC4)cc3)CC2)CN1c1ccc(C#N)c(Cl)c1` [ARi-12, (S)-2-chloro-4-(3-methyl-8-(4-(4-methylpiperazine-1-carbonyl)phenyl)-2,8-diazaspiro[4.5]decan-2-yl)benzonitrile] as the compound, how does the “effect on protein levels (proteomics)” value (AR protein [1]) read?
A: did not significantly alter the levels of any proteins analyzed

Q: Which “times more potent than 14a in AR binding” value (AR-LBD protein; vs 14a) does the source give for `CN1CCN(c2ccc(C(=O)N3CCC4(CC3)CCN(c3ccc(C#N)c(Cl)c3)C4)cc2)CC1` [Compound 14b] here?
A: 2

Q: Which IC50 (AR-LBD protein) does the source give for `N#Cc1ccc(N2CCC3(CCN(c4ccccc4)CC3)C2)cc1Cl` [Compound 15a] here?
A: > 1000 nM

Q: For `N#Cc1ccc(N2CCC3(CCN(c4ccc(C(=O)N5CCCN(C6CCN(c7ccc8c(c7)C(=O)N(C7CCC(=O)NC7=O)C8=O)CC6)CC5)cc4)CC3)C2)cc1Cl` (stereo not drawn) [Compound 21, 2-chloro-4-(8-(4-(4-(1-(2-(2,6-dioxopiperidin-3-yl)-1,3-dioxoisoindolin-5-yl)piperidin-4-yl)-1,4-diazepane-1-carbonyl)phenyl)-2,8-diazaspiro[4.5]decan-2-yl)benzonitrile], which concentration at 1 h (Oral exposure in mice; [3]) is on record?
A: 46 ± 16 ng/mL

Q: What about the concentration at 3 h (Oral exposure in mice; [3]) of the same compound?
A: 8 ± 1 ng/mL

Q: And the concentration at 6 h (Oral exposure in mice; [3])?
A: 11 ± 3 ng/mL

Q: Which concentration at 1 h (Oral exposure in mice; [3]) does the source give for `N#Cc1ccc(N2CCC3(CCN(c4ccc(C(=O)N5CCN(C6CN(c7ccc8c(c7)C(=O)N(C7CCC(=O)NC7=O)C8=O)C6)CC5)cc4)CC3)C2)cc1Cl` (stereo not drawn) [Compound 27, 2-chloro-4-(8-(4-(4-(1-(2-(2,6-dioxopiperidin-3-yl)-1,3-dioxoisoindolin-5-yl)azetidin-3-yl)piperazine-1-carbonyl)phenyl)-2,8-diazaspiro[4.5]decan-2-yl)benzonitrile] here?
A: 501 ng/mL

Q: And the concentration at 3 h (Oral exposure in mice; [3])?
A: 171 ng/mL

Q: And the concentration at 6 h (Oral exposure in mice; [3])?
A: 246 ng/mL

Q: What about the concentration at 24 h (Oral exposure in mice; [3]) of the same compound?
A: 44 ng/mL

Q: And the “Plasma drug concentration (mean ± SD)” value (Oral exposure in mice; 1 h, 10 mg/kg)?
A: 501 ± 106 ng/mL

Q: What about the “Plasma drug concentration (mean ± SD)” value (Oral exposure in mice; 3 h, 10 mg/kg) of the same compound?
A: 171 ± 83 ng/mL

Q: And the “Plasma drug concentration (mean ± SD)” value (Oral exposure in mice; 6 h, 10 mg/kg)?
A: 246 ± 27 ng/mL

Q: What about the “Plasma drug concentration (mean ± SD)” value (Oral exposure in mice; 24 h, 10 mg/kg) of the same compound?
A: 44 ± 5 ng/mL

Q: For `C[C@H]1CC2(CCN(c3ccc(C(=O)N4CCN(C5CN(c6ccc7c(c6)C(=O)N(C6CCC(=O)NC6=O)C7=O)C5)CC4)cc3)CC2)CN1c1ccc(C#N)c(Cl)c1` (stereo partly drawn) [Compound 30, 2-chloro-4-((3S)-8-(4-(4-(1-(2-(2,6-dioxopiperidin-3-yl)-1,3-dioxoisoindolin-5-yl)azetidin-3-yl)piperazine-1-carbonyl)phenyl)-3-methyl-2,8-diazaspiro[4.5]decan-2-yl)benzonitrile], which “times more potent than ARV-110 in inducing AR degradation” value (AR protein [2]) is on record?
A: 6-9

Q: What about the “times more potent than Enzalutamide in suppressing KLK3 gene expression” value (KLK3 (PSA) gene; VCaP and LNCaP cell lines) of the same compound?
A: at least 30

Q: And the “suppression of expression of KLK3 gene” value (KLK3 (PSA) gene; VCaP, 1 nM, 24 h)?
A: 51%

Q: What about the AUC(0-t) (PK study in mouse) of the same compound?
A: 11700 ng·h/mL

Q: What about the Cmax (PK study in mouse) of the same compound?
A: 1480 ng/mL

Q: And the AUC(0-t) (PK study in rat)?
A: 12800 ng·h/mL

Q: What about the Cmax (PK study in rat) of the same compound?
A: 1470 ng/mL

Q: What about the AUC (PK study in dog) of the same compound?
A: 1820 ng·h/mL

Q: And the signs of toxicity (VCaP xenograft tumor)?
A: no signs of toxicity

Source: PMC10568492 (Journal of medicinal chemistry, 2023)
